In a melting point compilation (Tetko et al.; mined from patent text by program, amines drawn as free bases though some values may be those of a salt) one finds melting point data, which are given here for 85 compounds.

Each structure is given as a SMILES string.

For the compound `COC(=O)Cn1nnnc1-c1c(Cl)c(Cl)cc2[nH]c(=O)c(=O)[nH]c12`, the melting point is 281 to 283 °C.

`Cc1ccc(S(=O)(=O)OCC2Cc3c(C)c(Cl)cc(C(C)C)c3O2)cc1` (stereo not given) showed a melting point of 103 to 105 °C.

`CNC1=NS(=O)(=O)N=C1NCCCCc1ccc(CN(C)C)o1` yielded a melting point of 152 to 153 °C.

`CCOC(=O)C1=C(C)NC(c2c(F)cc(F)cc2F)=NC1c1ccc(F)cc1Cl` (stereo not given) showed a melting point of 184 to 186 °C.

In turn, `CC(=O)Nc1cc(Oc2ccc3c(C(=O)Nc4ccc(N5CCC[C@H](N)C5)c(C(F)(F)F)c4)cccc3c2)ncn1` showed a melting point of 218 to 228 °C.

Turning to `CN(C)c1ccc(C2=NN(S(=O)(=O)c3ccc(I)cc3)CCC2)cc1`, the melting point lay within 203 to 205 °C.

The compound `CCCC(CCC)NC(=O)c1ccc2oc(OC)nc2c1` displayed a melting point of 137 to 138 °C.

`C#CC1(c2ccc(OC)c(OC3CCCC3)c2)CC(=O)C1` had a melting point of 58 to 59 °C.

`c1ccc(-c2nnc3c4ccccc4c(N4CCCC4)nn23)cc1` came in with a melting point of 208 °C.

As for `O=C1N(c2ccc(Cl)cc2Cl)Cc2cnc(Nc3ccccc3)nc2N1c1cccc(CCN2CCNCC2)c1`, the melting point is 126 °C.

Regarding `CCN(Cc1ccccc1)C(=O)Cc1c(-c2ccc(C)cc2)nc2cc(C)ccn12`, the melting point lay within 220 to 222 °C.

Consider `O=C1OC(=O)c2c(Cl)ccc(Cl)c21`, for which the melting point is 187 to 190 °C.

With `Cc1ccc(C2CCC(=O)Nc3ccccc32)cc1` (stereo not given), the melting point was 178 to 181 °C.

The compound `CN(CCCOc1ccc(C=C2SC(=O)NC2=O)cc1)c1nc2ccccc2o1` returned a melting point of 202 to 204 °C.

In the case of `Cc1cccc(NC(=O)NC2CN(C(=O)C3CCCCC3)c3ccccc3N(CC(=O)c3ccccc3C)C2=O)c1` (stereo not given), the melting point lay in the range of 148 to 151 °C.

Compound `Cn1ccnc1Sc1ccc(Nc2c(C#N)cnc3cc(-c4ccc(C(=O)N5CCOCC5)cc4)ccc23)cc1Cl` had a melting point of 98 to 101 °C.

Take `CCCc1nn(C)c2c(=O)n(CCOc3cccc(OC(C)(CC)C(=O)O)c3)c(C)nc12` (stereo not given): the melting point was in the range of 130 to 132 °C.

In the case of `CCN(CC)CCOc1ccc(NC(=O)C#Cc2ccc(C(F)(F)F)cc2Cl)cc1N`, the melting point was 127 to 130 °C.

`CCCc1nc2c(C)cc(C)nc2n1Cc1ccc2oc(-c3ccccc3C(=O)O)nc2c1` yielded a melting point of 150 to 160 °C.

On to `O=C(CCc1cccnc1)NCCCCC1CCN(P(=O)(c2ccccc2)c2ccccc2)CC1`, for which the melting point is 134 to 135 °C.

`CCCOc1cc(C)c(Cl)c2c(=O)c3ccccc3sc12` came in with a melting point of 116 to 118 °C.

`CNN1c2c(cc(Oc3ccc(F)cc3F)c(=O)n2NC)C=NC1SCc1ccccc1` (stereo not given) had a melting point of 80.5 to 89.9 °C.

For `O=c1ccc2cnc(Nc3ccccc3)nc2n1-c1ccccc1`, the melting point lay within 300 to 302 °C.

`N#CCSc1ncc2ccccn12`: the melting point fell in the range of 120 to 122 °C.

In turn, `O=C(c1ccc(O)cc1)c1cc(Cl)cc(Cl)c1` showed a melting point of 183 °C.

Turning to `CCC(C(O)c1ccc(Cl)cc1)n1ncn(-c2ccc(N3CCN(C(=O)NC)CC3)cc2)c1=O` (stereo not given), the melting point is 221 °C.

Compound `O=C(O)CCCc1cc2nc(Cl)ccc2n1S(=O)(=O)c1ccc(-c2cscn2)cc1` returned a melting point of 211 to 217 °C.

For `OC[C@@H]1CC[C@H](CO)O1`, the melting point fell in the range of 128 to 129 °C.

`CN(Cc1ccc(NC(=O)C2=Cc3cc(-c4ccc(C#N)cc4)ccc3S(=O)(=O)CC2)cc1)C1CCOCC1` showed a melting point of 233 to 236 °C.

As for `CCOC(=O)Nc1c(C#N)c(C(F)(F)F)nn1-c1c(Cl)cc(C(F)(F)F)cc1Cl`, the melting point is 177 to 179 °C.

As to `Cc1c(-c2ccc(O)cc2)sc(C#N)c1-c1ccc(O)cc1`, the melting point lay within 282 to 284 °C.

In turn, `CCOC(=O)C1=C[C@H](O)[C@H](NC(C)=O)[C@@H](N=[N+]=[N-])C1` displayed a melting point of 51 to 53 °C.

In turn, `COC(=O)C(C#N)(CCCN(C)CCc1ccc(OC)c(OC)c1)c1ccc(OC)c(OC)c1` (stereo not given) yielded a melting point of 129 to 130 °C.

For `C1=CC2=Nc3ccccc3OCN2C=C1`, the melting point lay within 125 to 127 °C.

As for `C=CCN1CCc2cc(OC[C@H]3CO[C@](Cn4ccnc4)(c4ccc(Cl)cc4Cl)O3)ccc2C1` (racemic), the melting point fell in the range of 94 to 95 °C.

The compound `Cc1ccc(-c2c(C(=O)Nc3nccs3)nc(-c3cccc4ccccc34)n2CCN2CCOCC2)cc1` yielded a melting point of 226 to 227 °C.

In the case of `Nc1cccc(C#Cc2c(F)c(F)nc(F)c2F)c1`, the melting point is 172 to 173 °C.

In the case of `COC(=O)c1ccc(NCc2cc(O)ccc2O)cc1`, the melting point came to 175 °C.

In turn, `O=C(O)Cc1c(-c2ccccc2)nn(-c2cccnc2)c1-c1ccccc1` displayed a melting point of 185 to 187 °C.

Compound `Cc1occc1C(=O)Nc1ccc(Cl)c(C2OCCO2)c1` displayed a melting point of 134 to 135 °C.

On to `COC(=O)c1cccc(-c2cccc(CC(=O)O)c2)c1`, for which the melting point lay within 84.5 to 85.5 °C.

Compound `COc1ccc(S(=O)(=O)Nc2ccccc2Nc2ccccn2)cc1` returned a melting point of 113 to 116 °C.

In the case of `CNC(=C[N+](=O)[O-])NCCSCc1csc(CO)n1`, the melting point is 131 to 132 °C.

`O=C(c1ccc(F)cc1)c1cnn2c(-c3ccncc3)ccnc12`: the melting point was in the range of 214 to 216 °C.

`OCc1cc2c(F)ccc(Br)c2s1` had a melting point of 80 to 81 °C.

In turn, `CC(C)CNC(=O)C(C)(C)c1ccc(-c2cccn2C)cc1` displayed a melting point of 59 to 60 °C.

As for `CC(=O)ON=C(N)c1cccc(OC(C)=O)c1`, the melting point turned out to be 128 °C.

`COC(=O)c1ccc(OC)c(CC2COc3ccc(OCc4ccccc4)cc3C2O)c1` (stereo not given): the melting point was in the range of 133 to 135 °C.

`CCOC(=O)c1cc(O)n2c(C)nnc2n1` yielded a melting point of 201 to 203 °C.

With `NS(=O)(=O)c1ccc2[nH]cc(CCN3C(=O)c4ccccc4C3=O)c2c1`, the melting point lay within 285 to 290 °C.

Turning to `CC(C)C(S)C(=O)NC1(C(=O)NC(Cc2ccc(-c3ccc(F)cc3)cc2)C(=O)O)CCCC1` (stereo not given), the melting point lay within 196 to 198 °C.

Compound `CC(=O)c1ccc(-c2ccc(CC(C)O)cc2)cc1` (single isomer, unassigned; (-)) showed a melting point of 139 to 140 °C.

`CC(C)(C)c1ocnc1C=C(O)C(=O)O` yielded a melting point of 153 to 155 °C.

`Cn1nnc(-c2ccc3c(c2)c(C2=CCN(CCN4CCNC4=O)CC2)cn3-c2ccncc2)n1` showed a melting point of 177 to 178 °C.

The compound `Cn1c(CNc2ccc(Oc3cccc(C(F)(F)F)c3)cc2)nc([N+](=O)[O-])c1C#N` returned a melting point of 124 to 126 °C.

The compound `COc1cc(OP(=O)(OC)OC)c(C(=O)c2ccccc2)s1` displayed a melting point of 76 °C.

Compound `CCOC(=O)/C=C/c1cc(OCc2ccc(OCc3nc(-c4ccco4)oc3C)c(OC)c2)nn1-c1ccccc1` had a melting point of 127 to 128 °C.

Compound `COc1cc2c(cc1S(=O)(=O)c1cccs1)[C@@H](N1CCCC1=O)[C@H](O)C(C)(C)O2` (relative stereo) registered a melting point of 135 to 136 °C.

Compound `CC1(C)C(=O)N(c2ccc(C#N)c(C(F)(F)F)c2)C(=S)N1CCF` displayed a melting point of 135 °C.

Compound `COc1ccc(C2=NN(CCCCCCNCC(O)c3ccc(N)c(C#N)c3)C(=O)C3CCCCC23)cc1OC` (stereo not given) yielded a melting point of 101 to 103 °C.

Regarding `COc1cccc(CC(=O)O)c1OCCCc1cn(-c2ncc(Cl)cc2Cl)nc1C(C)C`, the melting point lay in the range of 105 to 106 °C.

Take `Cc1nc2n(c(=O)c1CCO)CCS2`: the melting point amounted to 149 °C.

Consider `COC(=O)c1cc(-c2cccc(C3=NC(C)(C)Cc4cc(OC)c5c(c43)CC(C)(C)O5)c2)ccc1NC(C)=O`, for which the melting point is 116 to 119 °C.

On to `CC(C)CCC(=O)N1C(=O)O[C@H](c2ccccc2)[C@@H]1C`, for which the melting point fell in the range of 76 to 77 °C.

On to `CC(=O)Nc1ccc(F)cc1S(=O)(=O)CC#N`, for which the melting point fell in the range of 154 to 157 °C.

`BrCc1ccc(-c2cnn(-c3ccc(CBr)cc3)n2)cc1` displayed a melting point of 144 to 145 °C.

The compound `O=C1Nc2ccccc2C1CCCCN1CC=C(c2ccc(Cl)cc2)CC1` (stereo not given) displayed a melting point of 122 to 124 °C.

Turning to `Cc1c(CC(=O)NCCO[N+](=O)[O-])cc(-c2ccc(S(C)(=O)=O)cc2)n1-c1ccc(F)cc1`, the melting point came to 135 °C.

`CCc1ccc(C(Cl)=NOS(C)(=O)=O)cc1` showed a melting point of 50 to 52 °C.

Compound `COC(=O)c1cc(-c2ccc(S(C)(=O)=O)cc2)n(-c2ccc(F)cc2)c1` gave a melting point of 144 to 146 °C.

`OCCOc1ccc(-c2nc(-c3ccc(Cl)cc3)nc(-c3ccc(OCCO)cc3O)n2)c(O)c1` showed a melting point of 149 to 150 °C.

`C=C(C(=O)c1cc(C)cc(C)c1O)c1ccccc1` yielded a melting point of 83 to 84 °C.

In turn, `NS(=O)(=O)c1cc(C(=O)O)cc(NC/C=C/CBr)c1Oc1ccccc1` registered a melting point of 191 to 194 °C.

Compound `NCC(O)C(Oc1ccc(C(F)(F)F)cc1)c1ccccc1` (stereo not given) displayed a melting point of 120 to 122 °C.

Consider `COc1cc2cc3c(Nc4ccc(Oc5ccccc5)c(Cl)c4)c(C#N)cnc3cc2cc1OCCN1CCOCC1`, for which the melting point lay within 190 to 194 °C.

In turn, `O=C(CC1CCN(Cc2ccccc2)CC1)Nc1noc(C2CN3CCC2CC3)n1` (stereo not given) came in with a melting point of 133 to 134 °C.

Turning to `O=C(O)c1ccc(Cl)c2c1CCNCC2`, the melting point lay in the range of 144 to 149 °C.

In turn, `COC(=O)[C@H](CS)NC(=O)[C@@H]1CCC(=S)N1` registered a melting point of 177 to 178 °C.

The compound `COc1ccc(C2=NC(C#N)CN2c2ccc(OCc3ccccc3)cc2)cc1` (stereo not given) had a melting point of 121 to 122 °C.

`Cc1c(-c2ccc(Cl)c(F)c2)sc2nc(N)[nH]c(=O)c12` yielded a melting point of 350 to 370 °C.

Take `CC(C)(C)c1cc(CCc2cc(C=O)cc(CCc3cc(C(C)(C)C)cc(C(C)(C)C)c3)c2)cc(C(C)(C)C)c1`: the melting point was in the range of 74 to 75 °C.

`Nc1noc(-c2nc(Cl)c(N)nc2N)n1` returned a melting point of 278 °C.

Regarding `COc1ccc(-c2cc(=O)c3c(O)c(I)c(OC)cc3o2)cc1`, the melting point lay in the range of 205 to 207 °C.

The compound `CCCCCCCCCCCCNC(=O)COc1ccc(/C=C/C(=O)C(F)(F)F)cc1` registered a melting point of 78.5 to 79 °C.

`CN1C(=O)C(C(=O)c2ccc(Cl)cc2Cl)C(=O)N(C)C1=O` yielded a melting point of 123 to 127 °C.

A word on the melting point: it is the temperature, or range, at which the solid turns liquid.
